Molecules are shown by their SMILES. Like-named read-outs stand apart in the source and are kept apart here.

Data set [1] has as its target T1, CB2 receptor (RBL-2H3 cell membranes) (Rattus norvegicus, UniProt Q9QZN9).
T1 construct: Preparation of Plasmatic Membranes of RBL-2H3 Cells; endogenous in cells; host or cells: RBL-2H3 (rat basophilic leukemia) cell membranes
T1 sequence (Q9QZN9 1-360): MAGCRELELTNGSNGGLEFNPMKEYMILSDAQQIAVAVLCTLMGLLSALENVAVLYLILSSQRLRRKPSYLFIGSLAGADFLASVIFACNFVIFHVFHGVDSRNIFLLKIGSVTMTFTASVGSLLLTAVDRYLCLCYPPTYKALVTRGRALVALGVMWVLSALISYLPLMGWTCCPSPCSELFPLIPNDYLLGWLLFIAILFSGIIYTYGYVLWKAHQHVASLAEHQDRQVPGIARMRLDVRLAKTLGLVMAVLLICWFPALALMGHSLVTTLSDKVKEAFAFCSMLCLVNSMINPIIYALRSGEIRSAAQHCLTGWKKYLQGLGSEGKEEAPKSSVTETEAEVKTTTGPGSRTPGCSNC
Briefly: Competitive displacement of 3H-WIN 55,212-2 binding to RBL-2H3 cell membranes. The settings on record: for inhibition at 10 µM: read-out: % Displacement. On the procedure:
RBL-2H3 cells (100×10^6), frozen at -80° C., were thawed with 4 ml of Tris-HCl buffer solution 50 mM (pH 7.4), added with 0.25% w/v of Tripsin inhibitor, TYPE II-S: SOY BEAN® (distributed by Sigma). The cells were resuspended in the buffer and homogenized. The homogenate was centrifuged at 1500×g at 4° C. for 10 min. The supernatant obtained was collected and the precipitate was resuspended in 4 ml of the previous buffer. The resuspended precipitate was homogenized and centrifuged again at 1500×g at 4° C. for 5-10 min. The resulting supernatant was combined to the supernatant previously obtained and centrifuged at 5000×g for 10 min. After centrifugation, the supernatant was collected and further centrifuged at 40,000×g at 4° C. for 30 min. The resulting precipitate was resuspended in 0.5 ml of the buffer solution described above, with addition of 1% Bovine Serum Albumin fatty acid free. The obtained suspension was centrifuged at 40,000×g at 4° C. for 30 min. The resulting precipitate was collected and resuspended in buffer solution containing 50 mM Tris HCl, 1 mM Tris-EDTA, 3 mM MgCl2, pH 7.4, in order to obtain a proteic concentration of 1 μg/μl approx. This preparation may be used fresh, or frozen at -80° C. and utilized within few days.
Non-radioactive WIN 55,212-2 (1 μM) was used to inhibit specific binding. […] The competitors were added to the binding mixture prior to the labelled ligand. In both cases, for an evaluation of the reference specific binding, ethanol and DMSO were added at the same final concentration to the total binding and to the aspecific one, also in the absence of competitors.
WIN 55,212-2 was used at a concentration of 3 μM, whereas the other compounds were used at a concentration of 10 μM.
Incubation was carried out in the presence of 1% DMSO. The values of Inhibitory Concentration 50 (IC50) are expressed as means ± SEM, after the number of experiments reported hereinbelow.
A general note: Loss of bound radioactivity is the signal in a displacement assay; it reports binding, not function.

A further data set deals with RBL-2H3 cells. Briefly: Inhibition of 3H-serotonin release induced by ADNP/DNP-HSA immunogenic stimulation in RBL-2H3 cells. Type of data set: cell-based, rat. The settings on record: for EC50: 15 minutes release period (Table 9); for inhibition at 100 µM: 100 μM (Table 8); for inhibition at 50 µM: 50 μM (Table 8).
A short description of data set [2]: Solubility in water and organic solvents. As to conditions: for solubility: organic solvent or mixture; for solubility in water: result in words.
The mark [3] stands for this setting: Rattus norvegicus, RBL-2H3, 0.25 h, read-out: 3H-serotonin net release (%).
[4] abbreviates: Rattus norvegicus, RBL-2H3, read-out: EC50, concentration inhibiting by 50% the net release of 3H serotonin, 0.2% DMSO.
[5] abbreviates: Rattus norvegicus, RBL-2H3, 0.25 h, 0.1% DMSO and 0.1% ethanol (Table 3), read-out: 3H-serotonin net release (%).
Setting [6] is: Rattus norvegicus, RBL-2H3, read-out: 3H-serotonin release inhibition %, 0.2% DMSO.
[7] abbreviates: Rattus norvegicus, RBL-2H3, read-out: 3H-serotonin release inhibition %, 1% DMSO.
Where [8] appears, read: Rattus norvegicus, RBL-2H3, read-out: EC50, concentration inhibiting by 50% the net release of 3H serotonin, 1% DMSO.

As for `CCCCCCC(C)(C)c1cc(O)c2c(c1)OC(C)(C)[C@@H]1CCC(=O)C[C@@H]21` (relative stereo) [Nabilone, 3-(1,1-dimethylheptyl)-6,6a,7,8,10,10a-hexahydro-1-hydroxy-6,6-dimethyl-9H-dibenzo-[b,d]-pyran-9-one, reference compound], the IC50 in data set [1] was 0.0026 ± 0.0014 µM; in the data set on RBL-2H3 cells (Rattus norvegicus, RBL-2H3, 0.25 h, read-out: ED50), 2.8 µM; in the data set with RBL-2H3 cells (read-out: ED50, inhibition of 3H-serotonin release, + anandamide (12.5 μM) (Table 5), 15 min), 5 µM. For the same molecule, the inhibition at 10 µM in data set [1] was 100%. Moreover, the “binding to the peripheral receptor” value in data set [1] (result in words) is “able to bind to the receptor and to compete”. The “3H-serotonin net release inhibition (%)” value in the data set with RBL-2H3 cells (5 μM, + anandamide (12.5 μM) (Table 4)) is recorded as 50%. Besides, the activity at 10 µM in the data set with RBL-2H3 cells (setting [3]) is 0%. For the same molecule, in the data set with RBL-2H3 cells (Rattus norvegicus, RBL-2H3, read-out: 3H-serotonin net release inhibition (%), 5 μM, - anandamide (Table 4)), the inhibition at 5 µM was 90%. The “functional effect following receptor activation (serotonin release)” value in the data set with RBL-2H3 cells (result in words) is on record as “able to inhibit, in a concentration-dependent way, RBL cells immunogenic activation”.
`C=C(C)[C@@H]1CCC(C)=C[C@H]1c1c(O)cc(CCCCC)cc1O` [Cannabidiol, cannabidiol, reference compound] yielded an IC50 in data set [1] of over 1 µM.
As a reminder, the solubility is the concentration that dissolves in the medium under given conditions. As for `CCCCCCCCCCCC(=O)NCCCCO` [Example 18, N-(4-hydroxybutyl)-lauroylamide], the EC50 with RBL-2H3 cells (setting [4]) turned out to be 63 µM. Also, the solubility in data set [2] (dmso) and in data set [2] (ethanol) was over 10000 µg/mL each time. Moreover, the solubility in water result in data set [2] is recorded as “scarcely soluble”.
`CCCCCC/C=C\CCCCCCCC(=O)NCCO` [Example 19, N-(2-hydroxyethyl)-palmitoleylamide]: the inhibition at 10 µM in data set [1] turned out to be 100%. Moreover, the activity at 100 µM with RBL-2H3 cells (setting [5]) stood at 100%. In addition, the solubility in data set [2] (dmso) and in data set [2] (ethanol) was over 10000 µg/mL each time. Also, in data set [2], the solubility in water result is listed as “scarcely soluble”.
For `CCCCCCCC/C=C\CCCCCCCC(=O)NCc1ccc(O)c(OC)c1` [Example 20, N-(4-hydroxy-3-methoxybenzyl)-oleoylamide], the EC50 in the data set with RBL-2H3 cells (setting [4]) stood at 6.3 µM. In addition, the solubility in data set [2] (dmso) and in data set [2] (ethanol) was over 10000 µg/mL each time. The solubility in water entry in data set [2] is on record as “scarcely soluble”.
As for `CCCCCCCCCCCCCCCC(=O)NCc1ccc(O)c(OC)c1` [Example 21, N-(4-hydroxy-3-methoxybenzyl)-palmitoylamide], in the data set on RBL-2H3 cells (setting [4]), the EC50 was 1.5 µM. Besides, the solubility in data set [2] (dmso) and in data set [2] (ethanol) was over 10000 µg/mL in each case. In data set [2], the solubility in water result is given as “scarcely soluble”.
Molecule `CCCCCCCCCCCC(=O)NCCO` [Example 22, N-(2-hydroxyethyl)-lauroylamide] yielded an IC50 in data set [1] (RBL-2H3 cell membranes, 1% DMSO, means ± SEM) of 0.0181 µM. Besides, in data set [1], the inhibition at 10 µM came to 72%. Also, the inhibition at 100 µM with RBL-2H3 cells (setting [6]) was 100%; in the data set on RBL-2H3 cells (setting [7]), 91%. Also, the EC50 with RBL-2H3 cells (setting [4]) came to 35 µM; in the data set with RBL-2H3 cells (setting [8]) it was 11 µM. Moreover, the solubility in data set [2] (chloroform) and in data set [2] (dmso) was over 10000 µg/mL throughout. Moreover, the solubility in water result in data set [2] was “scarcely soluble”.
As for `CCCCCCCCCCCCCCCC(=O)NCCCO` [Example 24, N-(3-hydroxypropyl)-palmitamide], the activity at 60 µM in the data set with RBL-2H3 cells (Rattus norvegicus, RBL-2H3, 0.25 h, 60 μM, 0.1% DMSO and 0.1% ethanol (Table 3), read-out: 3H-serotonin net release (%)) was 67%. Further, in the data set on RBL-2H3 cells (Rattus norvegicus, RBL-2H3, read-out: 3H-serotonin release inhibition %, 0.2% DMSO, 60 μM (Table 8)), the inhibition at 60 µM was 40%. Moreover, the inhibition at 100 µM in the data set with RBL-2H3 cells (setting [7]) turned out to be 88%. The EC50 with RBL-2H3 cells (setting [8]) stood at 7.2 µM. Besides, the values for the solubility in data set [2] (dmso) and in data set [2] (n-octanol) were over 3000 µg/mL and over 10000 µg/mL, respectively. For the same molecule, in data set [2], the solubility in water result is reported as “scarcely soluble”.
Consider `C=CCCCCCCCCC(=O)NCCO` [Example 28, N-(2-hydroxyethyl)-10-undecenoylamide], for which, in data set [1], the inhibition at 10 µM turned out to be 77%. For the same molecule, the activity at 100 µM with RBL-2H3 cells (setting [5]) came out at 100%. Further, the solubility in data set [2] (dmso) and in data set [2] (ethanol) was over 10000 µg/mL in each case. Further, the solubility in water result in data set [2] is reported as “scarcely soluble”.
On to `CCCCCCCCCCCCCCCC(=O)N1CCOCC1` [Example 29, N-palmitoyl-morpholine], for which the inhibition at 50 µM in the data set on RBL-2H3 cells (setting [6]) amounted to 36%. Also, in the data set with RBL-2H3 cells (Rattus norvegicus, RBL-2H3, read-out: 3H-serotonin release inhibition %, 1% DMSO, 30 μM (Table 8)), the inhibition at 30 µM amounted to 88%. The EC50 in the data set with RBL-2H3 cells (setting [4]) amounted to 42 µM; in the data set with RBL-2H3 cells (setting [8]), 3.5 µM. The solubility in data set [2] (dmso) and in data set [2] (hot ethanol) was over 10000 µg/mL each time. The solubility in water entry in data set [2] is given as “scarcely soluble”.
Take `CCCCCCCCCCCCCCCC(=O)N[C@H](C)CO` [Example 30, N-palmitoyl-[R(-)-2-amino-1-propanol]]: the EC50 in the data set with RBL-2H3 cells (setting [4]) is 3.9 µM. In addition, the solubility is over 5000 µg/mL in data set [2] (dmso) and over 10000 µg/mL in data set [2] (ethanol). Moreover, the solubility in water entry in data set [2] is given as “scarcely soluble”.
In the same order, the values of `CCCCCCCCCCCCCCCC(=O)N[C@@H](C)CO` [Example 31, N-palmitoyl-[S(+)-2-amino-1-propanol]] are 7.7 µM, over 5000 µg/mL, over 10000 µg/mL and “scarcely soluble”.
With `CCCCCCCCCCCCCCCC(=O)NC[C@@H](C)O` [Example 32, N-palmitoyl-[R(-)-1-amino-2-propanol]], the EC50 with RBL-2H3 cells (setting [4]) came to 0.73 µM. Also, the solubility in data set [2] (ethanol) was over 5000 µg/mL. Also, in data set [2], the solubility in water result is reported as “scarcely soluble”.
Taken in the same sequence, the figures for `CCCCCCCCCCCCCCCC(=O)NC[C@H](C)O` [Example 33, N-palmitoyl-[S(+)-1-amino-2-propanol]] were 4.7 µM, over 5000 µg/mL and “scarcely soluble”.
With `CCCCCCCCCCCCCCCC(=O)NCCc1ccc(O)cc1` [Example 34, N-(p-hydroxy-phenylethyl)-palmitoylamide], the EC50 in the data set with RBL-2H3 cells (setting [4]) was 13 µM; with RBL-2H3 cells (setting [8]), 0.36 µM. Further, the solubility in data set [2] (dmso) and in data set [2] (ethanol) was over 10000 µg/mL in each case. Besides, in data set [2], the solubility in water entry is listed as “scarcely soluble”.
Consider `CCCCCCCCCCCCCCCC(=O)NCCOC` [Example 35, N-(2-methoxy-ethyl)-palmitoylamide], for which the EC50 in the data set with RBL-2H3 cells (setting [4]) came to 6.3 µM; with RBL-2H3 cells (setting [8]), 9.2 µM. In data set [2] (ethanol), the solubility is over 10000 µg/mL. The solubility in water entry in data set [2] is given as “scarcely soluble”.
For `CCCCCCCCCCCC(=O)N1CCOCC1` [Example 36, N-lauroyl-morpholine], in the data set on RBL-2H3 cells (setting [5]), the activity at 100 µM was determined as 51%. Besides, the solubility in data set [2] (dmso) and in data set [2] (ethanol) was over 10000 µg/mL in each case. Moreover, the solubility in water entry in data set [2] is listed as “scarcely soluble”.
In the case of `CCCCCCCCCCCCCCCCCC(=O)N1CCOCC1` [Example 37, N-stearoyl-morpholine], in the data set with RBL-2H3 cells (setting [8]), the EC50 came to 15 µM. In data set [2] (hot ethanol), the solubility was over 10000 µg/mL. The solubility in water result in data set [2] is listed as “scarcely soluble”.
Regarding `CCCCCCCCCCCCCCCCCC(=O)NCc1ccc(O)c(OC)c1` [Example 39, N-(4-hydroxy-3-methoxybenzyl)-stearoylamide], the activity at 50 µM with RBL-2H3 cells (setting [3]) came to 68%. Further, in the data set on RBL-2H3 cells (setting [6]), the inhibition at 50 µM worked out at 32%. Further, in the data set on RBL-2H3 cells (setting [7]), the inhibition at 100 µM was 67%. For the same molecule, the solubility in data set [2] (dmso) and in data set [2] (ethanol) was over 10000 µg/mL in each case. The solubility in water entry in data set [2] was “scarcely soluble”.

For the origin of these results see patent US5990170A, “Therapeutic use of mono and bicarboxylic acid amides active at the peripheral cannabinoid receptor” (Lifegroup S.p.A., priority 1994, dated 1999).
